{"source": "paper PMC5797708", "about": "(SLAS discovery : advancing life sciences R & D, 2017)", "key": {"pre-miR-21 [1]": {"test_system": "pre-miR-21", "assay": "cat-ELCCA for Dicer-mediated pre-miRNA maturation", "assay_type": "biochemical", "details": "for hit in HTS for inhibition of Dicer-mediated pre-miR-21 maturation: primary and confirmation screens at 25 µM, CRCs from 3.3 to 120 µM"}, "pre-miR-21 [2]": {"test_system": "pre-miR-21", "details": "previously shown; cited from earlier work"}}, "note": "Like-named read-outs stand apart in the source and are kept apart here.", "data": [{"smiles": "C=C1c2c(Cl)ccc(O)c2C(=O)C2=C(O)[C@]3(O)C(=O)C(C(N)=O)=C(O)[C@@H](N(C)C)[C@@H]3[C@@H](O)[C@H]12", "note": "[meclocycline]", "values": [{"measurement": "hit in HTS for inhibition of Dicer-mediated pre-miR-21 maturation", "setting": "pre-miR-21 [1]", "value": "emerged as hits"}]}, {"smiles": "C=C1c2cccc(O)c2C(=O)C2=C(O)[C@]3(O)C(=O)C(C(N)=O)=C(O)[C@@H](N(C)C)[C@@H]3[C@@H](O)[C@H]12", "note": "[methacycline]", "values": [{"measurement": "hit in HTS for inhibition of Dicer-mediated pre-miR-21 maturation", "setting": "pre-miR-21 [1]", "value": "emerged as hits"}]}, {"smiles": "CN(C)c1ccc(O)c2c1C[C@H]1C[C@H]3[C@H](N(C)C)C(O)=C(C(N)=O)C(=O)[C@@]3(O)C(O)=C1C2=O", "note": "[minocycline]", "values": [{"measurement": "hit in HTS for inhibition of Dicer-mediated pre-miR-21 maturation", "setting": "pre-miR-21 [1]", "value": "emerged as hits"}]}, {"smiles": "NC[C@H]1O[C@H](O[C@H]2[C@H](O)[C@@H](O[C@H]3O[C@H](CO)[C@@H](O)[C@H](N)[C@H]3O)[C@H](N)C[C@@H]2N)[C@H](O)[C@@H](O)[C@@H]1O", "note": "[kanamycin]", "values": [{"measurement": "inhibition of Dicer-mediated pre-miR-21 maturation", "setting": "pre-miR-21 [1]; data not shown", "value": "do not inhibit"}]}, {"smiles": "[H]/N=C(/N)N[C@H]1[C@H](O)[C@@H](O)[C@H](O[C@@H]2O[C@@H](C)[C@](O)(C=O)[C@H]2O[C@@H]2O[C@@H](CO)[C@H](O)[C@@H](O)[C@@H]2NC)[C@@H](N/C(N)=N\\[H])[C@@H]1O", "note": "[streptomycin]", "values": [{"measurement": "inhibition of Dicer-mediated pre-miR-21 maturation", "setting": "pre-miR-21 [2]", "value": "do not inhibit"}]}]}
